Measurements reported in ChEMBL document CHEMBL3991601, “The target landscape of clinical kinase drugs” (Science, 2017).
Structures can show the parent of a compound that is named as a salt. Active and inactive are the calls of the source. For most assays here, no stated cut-off is given here; in the data, actives have a measured Kd and inactives only a lower limit.

What was measured:
[1] = biological target: BMP-2-inducible protein kinase (Homo sapiens, UniProt Q9NSY1)
[2] = biological target: Cyclin-dependent kinase 13 (Homo sapiens, UniProt Q14004)
[3] = biological target: T1, Ephrin type-B receptor 2 (Homo sapiens, UniProt P29323)
T1 sequence (P29323 whole entry): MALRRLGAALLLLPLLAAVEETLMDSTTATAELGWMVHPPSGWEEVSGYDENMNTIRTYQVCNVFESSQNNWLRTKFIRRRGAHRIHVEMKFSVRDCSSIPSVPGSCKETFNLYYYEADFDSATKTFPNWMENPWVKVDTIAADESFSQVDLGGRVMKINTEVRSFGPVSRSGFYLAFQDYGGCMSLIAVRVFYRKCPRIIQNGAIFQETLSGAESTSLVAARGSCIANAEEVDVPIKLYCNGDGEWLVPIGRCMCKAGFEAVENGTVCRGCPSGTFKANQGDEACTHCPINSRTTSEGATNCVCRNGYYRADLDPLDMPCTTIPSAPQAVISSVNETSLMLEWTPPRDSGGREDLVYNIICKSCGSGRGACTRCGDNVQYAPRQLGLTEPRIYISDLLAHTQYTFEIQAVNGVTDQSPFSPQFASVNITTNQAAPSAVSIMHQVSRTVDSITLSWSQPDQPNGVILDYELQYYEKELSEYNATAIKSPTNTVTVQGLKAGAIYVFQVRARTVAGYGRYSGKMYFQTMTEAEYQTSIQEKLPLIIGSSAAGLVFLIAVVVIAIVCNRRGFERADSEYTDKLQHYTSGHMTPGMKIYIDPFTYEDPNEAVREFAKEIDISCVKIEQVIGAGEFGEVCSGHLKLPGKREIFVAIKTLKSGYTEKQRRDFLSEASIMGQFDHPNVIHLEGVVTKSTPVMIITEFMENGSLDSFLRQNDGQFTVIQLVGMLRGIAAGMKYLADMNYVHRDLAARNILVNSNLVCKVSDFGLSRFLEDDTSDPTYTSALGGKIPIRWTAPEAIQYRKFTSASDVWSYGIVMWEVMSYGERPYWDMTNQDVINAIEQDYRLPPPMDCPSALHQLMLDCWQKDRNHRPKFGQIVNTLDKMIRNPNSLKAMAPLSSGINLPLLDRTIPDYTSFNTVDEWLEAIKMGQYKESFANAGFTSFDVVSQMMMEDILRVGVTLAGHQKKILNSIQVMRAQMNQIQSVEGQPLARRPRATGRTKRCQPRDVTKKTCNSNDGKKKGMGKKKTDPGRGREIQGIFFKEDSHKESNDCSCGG

[4] = biological target: T2, Ephrin type-B receptor 6 (Homo sapiens, UniProt O15197)
T2 sequence (O15197 whole entry): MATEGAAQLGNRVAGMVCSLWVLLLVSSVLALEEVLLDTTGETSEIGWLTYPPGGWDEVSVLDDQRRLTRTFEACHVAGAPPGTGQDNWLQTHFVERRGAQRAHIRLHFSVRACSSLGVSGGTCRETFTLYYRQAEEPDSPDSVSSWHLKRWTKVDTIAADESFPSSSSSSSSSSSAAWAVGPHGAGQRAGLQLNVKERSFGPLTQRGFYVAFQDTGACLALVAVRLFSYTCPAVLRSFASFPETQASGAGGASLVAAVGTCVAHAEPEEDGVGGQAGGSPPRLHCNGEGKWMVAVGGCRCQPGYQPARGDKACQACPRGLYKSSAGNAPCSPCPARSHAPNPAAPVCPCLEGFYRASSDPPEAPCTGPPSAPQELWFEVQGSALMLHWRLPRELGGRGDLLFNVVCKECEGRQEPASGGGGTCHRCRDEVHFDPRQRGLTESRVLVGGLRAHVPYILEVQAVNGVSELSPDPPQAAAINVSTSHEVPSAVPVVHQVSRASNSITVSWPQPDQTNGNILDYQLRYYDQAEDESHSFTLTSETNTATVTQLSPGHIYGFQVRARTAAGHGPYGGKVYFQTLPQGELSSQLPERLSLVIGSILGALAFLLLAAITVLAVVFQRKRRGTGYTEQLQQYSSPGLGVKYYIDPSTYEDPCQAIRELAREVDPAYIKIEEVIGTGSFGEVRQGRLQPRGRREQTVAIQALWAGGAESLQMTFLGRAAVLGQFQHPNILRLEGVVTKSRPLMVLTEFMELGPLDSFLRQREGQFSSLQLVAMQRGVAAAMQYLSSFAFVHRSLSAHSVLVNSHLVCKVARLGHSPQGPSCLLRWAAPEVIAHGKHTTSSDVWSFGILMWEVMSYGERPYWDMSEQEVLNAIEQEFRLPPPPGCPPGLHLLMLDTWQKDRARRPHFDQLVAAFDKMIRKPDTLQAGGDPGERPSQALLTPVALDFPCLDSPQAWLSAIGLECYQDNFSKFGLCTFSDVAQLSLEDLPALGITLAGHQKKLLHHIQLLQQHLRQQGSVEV

[5] = biological target: High affinity nerve growth factor receptor (Homo sapiens, UniProt P04629)
[6] = biological target: T3, Serine/threonine-protein kinase 4 (Homo sapiens, UniProt Q13043)
T3 sequence (Q13043 whole entry): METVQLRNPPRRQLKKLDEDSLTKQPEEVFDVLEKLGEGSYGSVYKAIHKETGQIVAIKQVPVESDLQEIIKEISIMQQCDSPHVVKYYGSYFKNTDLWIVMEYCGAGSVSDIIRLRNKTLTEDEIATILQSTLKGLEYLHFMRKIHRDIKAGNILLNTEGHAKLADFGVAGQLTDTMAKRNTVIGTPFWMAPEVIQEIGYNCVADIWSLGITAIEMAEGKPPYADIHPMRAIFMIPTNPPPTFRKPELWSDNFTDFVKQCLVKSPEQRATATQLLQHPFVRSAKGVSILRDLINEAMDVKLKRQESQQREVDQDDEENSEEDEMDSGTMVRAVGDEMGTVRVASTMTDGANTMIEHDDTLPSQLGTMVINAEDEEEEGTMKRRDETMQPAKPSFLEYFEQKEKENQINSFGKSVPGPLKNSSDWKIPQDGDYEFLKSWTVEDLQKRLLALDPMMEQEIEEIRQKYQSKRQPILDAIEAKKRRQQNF

[7] = biological target: G protein-coupled receptor kinase 6 (Homo sapiens, UniProt P43250)
G protein-coupled receptor kinase 6, sequence (P43250 whole entry): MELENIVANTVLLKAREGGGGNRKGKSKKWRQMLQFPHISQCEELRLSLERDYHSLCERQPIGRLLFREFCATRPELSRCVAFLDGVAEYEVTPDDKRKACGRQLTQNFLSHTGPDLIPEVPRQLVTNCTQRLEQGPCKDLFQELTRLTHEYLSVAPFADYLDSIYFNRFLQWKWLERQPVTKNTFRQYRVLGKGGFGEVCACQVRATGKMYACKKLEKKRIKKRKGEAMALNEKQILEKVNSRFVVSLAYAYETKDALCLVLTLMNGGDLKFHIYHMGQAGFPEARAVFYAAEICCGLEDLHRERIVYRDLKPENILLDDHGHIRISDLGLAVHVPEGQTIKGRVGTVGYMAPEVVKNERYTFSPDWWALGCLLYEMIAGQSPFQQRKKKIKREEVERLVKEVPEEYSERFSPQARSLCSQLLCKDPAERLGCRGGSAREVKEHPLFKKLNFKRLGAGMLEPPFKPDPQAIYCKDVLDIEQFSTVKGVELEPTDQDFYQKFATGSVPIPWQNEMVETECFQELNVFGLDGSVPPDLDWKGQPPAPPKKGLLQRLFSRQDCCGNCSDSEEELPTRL

Cyclin-dependent kinase 13, sequence (Q14004 whole entry): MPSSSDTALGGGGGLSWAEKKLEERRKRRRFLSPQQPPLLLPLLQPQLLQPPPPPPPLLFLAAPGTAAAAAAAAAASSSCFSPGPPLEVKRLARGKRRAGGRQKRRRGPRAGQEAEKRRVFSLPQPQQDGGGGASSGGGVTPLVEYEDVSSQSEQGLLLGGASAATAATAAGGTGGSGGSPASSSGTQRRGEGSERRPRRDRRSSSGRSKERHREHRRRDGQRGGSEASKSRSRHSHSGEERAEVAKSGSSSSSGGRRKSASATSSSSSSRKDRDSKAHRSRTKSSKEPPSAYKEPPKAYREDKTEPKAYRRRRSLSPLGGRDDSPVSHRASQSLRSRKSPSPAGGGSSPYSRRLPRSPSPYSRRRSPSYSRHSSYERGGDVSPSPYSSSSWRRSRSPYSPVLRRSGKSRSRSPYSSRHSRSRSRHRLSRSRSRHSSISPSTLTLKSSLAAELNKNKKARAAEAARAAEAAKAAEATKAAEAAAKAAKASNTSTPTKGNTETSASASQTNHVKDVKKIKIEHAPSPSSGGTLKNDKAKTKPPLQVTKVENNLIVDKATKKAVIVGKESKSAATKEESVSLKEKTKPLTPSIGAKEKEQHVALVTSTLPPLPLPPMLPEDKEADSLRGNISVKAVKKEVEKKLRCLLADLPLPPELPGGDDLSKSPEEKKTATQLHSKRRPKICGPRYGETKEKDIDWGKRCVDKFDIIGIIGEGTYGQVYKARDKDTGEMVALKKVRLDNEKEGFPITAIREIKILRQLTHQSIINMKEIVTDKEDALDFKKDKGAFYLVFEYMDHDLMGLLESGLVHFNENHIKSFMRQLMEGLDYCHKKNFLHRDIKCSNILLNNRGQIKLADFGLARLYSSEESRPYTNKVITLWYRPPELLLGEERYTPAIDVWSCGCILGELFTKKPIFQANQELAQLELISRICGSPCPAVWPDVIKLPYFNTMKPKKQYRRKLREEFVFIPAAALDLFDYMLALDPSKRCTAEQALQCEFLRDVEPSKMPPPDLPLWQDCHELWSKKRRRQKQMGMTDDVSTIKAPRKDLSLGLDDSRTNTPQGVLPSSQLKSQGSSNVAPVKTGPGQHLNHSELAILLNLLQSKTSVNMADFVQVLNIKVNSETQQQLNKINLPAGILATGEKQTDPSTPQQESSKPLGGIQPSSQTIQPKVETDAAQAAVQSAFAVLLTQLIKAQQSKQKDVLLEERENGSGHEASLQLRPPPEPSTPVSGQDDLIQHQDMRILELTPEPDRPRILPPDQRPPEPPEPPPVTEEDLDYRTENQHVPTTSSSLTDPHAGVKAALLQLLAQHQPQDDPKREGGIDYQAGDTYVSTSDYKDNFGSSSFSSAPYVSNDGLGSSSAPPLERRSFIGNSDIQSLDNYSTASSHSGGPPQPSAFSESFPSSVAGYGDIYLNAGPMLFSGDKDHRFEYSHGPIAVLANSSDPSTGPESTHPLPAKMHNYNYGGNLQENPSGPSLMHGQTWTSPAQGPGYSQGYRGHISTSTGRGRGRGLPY
High affinity nerve growth factor receptor, sequence (P04629 whole entry): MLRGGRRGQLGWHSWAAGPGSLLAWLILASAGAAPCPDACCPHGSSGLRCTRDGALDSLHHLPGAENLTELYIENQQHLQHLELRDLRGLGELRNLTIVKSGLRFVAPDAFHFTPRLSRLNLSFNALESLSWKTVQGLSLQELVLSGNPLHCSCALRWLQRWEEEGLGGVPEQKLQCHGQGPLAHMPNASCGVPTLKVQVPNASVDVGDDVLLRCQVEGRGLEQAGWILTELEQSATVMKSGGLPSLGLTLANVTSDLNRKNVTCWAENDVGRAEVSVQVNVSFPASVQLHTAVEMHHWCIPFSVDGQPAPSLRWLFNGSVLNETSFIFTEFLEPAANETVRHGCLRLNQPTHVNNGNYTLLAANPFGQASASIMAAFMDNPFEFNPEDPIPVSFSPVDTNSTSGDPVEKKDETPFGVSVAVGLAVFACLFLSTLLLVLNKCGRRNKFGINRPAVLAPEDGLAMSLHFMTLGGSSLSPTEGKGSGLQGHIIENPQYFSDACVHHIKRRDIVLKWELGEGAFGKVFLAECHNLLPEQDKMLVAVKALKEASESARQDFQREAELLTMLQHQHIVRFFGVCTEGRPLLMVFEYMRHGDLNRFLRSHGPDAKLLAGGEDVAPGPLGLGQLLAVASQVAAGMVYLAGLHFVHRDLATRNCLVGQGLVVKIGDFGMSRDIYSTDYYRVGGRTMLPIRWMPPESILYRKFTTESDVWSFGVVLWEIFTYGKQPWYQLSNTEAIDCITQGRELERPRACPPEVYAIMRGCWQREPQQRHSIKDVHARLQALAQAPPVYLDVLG
BMP-2-inducible protein kinase, sequence (Q9NSY1 whole entry): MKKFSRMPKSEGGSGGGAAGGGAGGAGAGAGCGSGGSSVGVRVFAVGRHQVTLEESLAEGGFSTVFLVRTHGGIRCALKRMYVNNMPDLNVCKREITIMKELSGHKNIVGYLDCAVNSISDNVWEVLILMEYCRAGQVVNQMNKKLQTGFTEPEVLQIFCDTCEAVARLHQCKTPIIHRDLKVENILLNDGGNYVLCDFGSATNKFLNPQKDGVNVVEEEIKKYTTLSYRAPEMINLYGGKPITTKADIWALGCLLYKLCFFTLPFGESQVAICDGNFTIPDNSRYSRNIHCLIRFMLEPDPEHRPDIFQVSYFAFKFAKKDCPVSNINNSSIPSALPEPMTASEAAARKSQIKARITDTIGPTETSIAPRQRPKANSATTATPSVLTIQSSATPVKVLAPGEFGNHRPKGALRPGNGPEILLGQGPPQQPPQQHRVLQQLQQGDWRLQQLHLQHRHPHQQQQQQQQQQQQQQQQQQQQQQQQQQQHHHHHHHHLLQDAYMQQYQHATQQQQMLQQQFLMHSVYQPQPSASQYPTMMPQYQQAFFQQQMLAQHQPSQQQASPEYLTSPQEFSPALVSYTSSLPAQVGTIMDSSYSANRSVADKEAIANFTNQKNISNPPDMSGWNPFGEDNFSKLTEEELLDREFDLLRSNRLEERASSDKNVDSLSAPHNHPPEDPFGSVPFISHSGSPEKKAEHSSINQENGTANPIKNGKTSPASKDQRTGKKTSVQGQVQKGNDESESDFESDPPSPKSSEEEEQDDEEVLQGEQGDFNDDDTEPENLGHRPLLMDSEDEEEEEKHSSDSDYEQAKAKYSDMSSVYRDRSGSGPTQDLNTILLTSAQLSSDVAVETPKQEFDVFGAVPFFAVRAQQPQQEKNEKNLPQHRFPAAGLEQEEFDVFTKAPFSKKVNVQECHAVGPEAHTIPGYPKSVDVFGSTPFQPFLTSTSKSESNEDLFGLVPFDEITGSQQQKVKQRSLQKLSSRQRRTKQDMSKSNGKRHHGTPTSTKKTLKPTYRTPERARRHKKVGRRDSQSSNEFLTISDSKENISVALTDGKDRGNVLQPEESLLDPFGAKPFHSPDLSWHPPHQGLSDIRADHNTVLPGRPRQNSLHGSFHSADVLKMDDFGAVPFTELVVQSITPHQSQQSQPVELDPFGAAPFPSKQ

Kd [1] | Kd [2] | Kd [3] | Kd [4] | Kd [5] | Kd [6] | Kd [7] | SMILES
> 30 µM (inactive) | > 30 µM (inactive) | > 30 µM (inactive) | > 30 µM (inactive) | > 30 µM (inactive) | > 30 µM (inactive) |  | C[C@H]1CNCCCN1S(=O)(=O)c1cccc2cncc(F)c12
> 30 µM (inactive) | > 30 µM (inactive) | > 30 µM (inactive) | > 30 µM (inactive) | > 30 µM (inactive) | > 30 µM (inactive) |  | C=CC(=O)N1CCC[C@H](n2c(=O)n(-c3ccc(Oc4ccccc4)cc3)c3c(N)ncnc32)C1
> 30 µM (inactive) | > 30 µM (inactive) | > 30 µM (inactive) | > 30 µM (inactive) |  | > 30 µM (inactive) |  | Cc1nc(NC(=O)N2CCC[C@H]2C(N)=O)sc1-c1ccnc(C(C)(C)C(F)(F)F)c1 [ALPELISIB]
> 30 µM (inactive) | 2.51 µM | > 30 µM (inactive) | > 30 µM (inactive) | > 30 µM (inactive) | > 30 µM (inactive) |  | Cc1csc(-c2nnc(Nc3ccc(Oc4ncccc4-c4ccnc(N)n4)cc3)c3ccccc23)c1 [AMG-900]
 |  |  |  |  |  | > 30 µM (inactive) | CNC(=O)c1ccccc1Sc1ccc2c(/C=C/c3ccccn3)n[nH]c2c1 [AXITINIB]
> 30 µM (inactive) | > 30 µM (inactive) | > 30 µM (inactive) | > 30 µM (inactive) | > 30 µM (inactive) | > 30 µM (inactive) |  | Cn1cnc2c(F)c(Nc3ccc(Br)cc3F)c(C(=O)NOCCO)cc21 [BINIMETINIB]
0.0008 µM (active) | > 30 µM (inactive) | > 30 µM (inactive) | > 30 µM (inactive) | > 30 µM (inactive) | 0.102 µM (active) |  | CCS(=O)(=O)N1CCN(c2ccc(Nc3ncc(C(N)=O)c(NC4CC4)n3)cc2)CC1 [Cerdulatinib Hydrochloride]
> 30 µM (inactive) | > 30 µM (inactive) | > 30 µM (inactive) | 0.007 µM | > 30 µM (inactive) | > 30 µM (inactive) |  | Cc1nc2cc(-n3ncc(C(=O)c4cc5ccccc5[nH]4)c3N)ccc2[nH]1 [FGFR INHIBITOR DEBIO 1347]
 |  |  |  |  |  | > 30 µM (inactive) | C[C@@H](Oc1cc(-n2cnc3ccc(CN4CCN(C)CC4)cc32)sc1C(N)=O)c1ccccc1C(F)(F)F [GSK-461364]
> 30 µM (inactive) | > 30 µM (inactive) | > 30 µM (inactive) | > 30 µM (inactive) | > 30 µM (inactive) | > 30 µM (inactive) |  | CN(C[C@@H]1COCCO1)S(=O)(=O)Nc1ccc2ccc3ncc(-c4cnn(C)c4)cc3c(=O)c2c1 [MK-2461]
0.303 µM (active) | > 30 µM (inactive) | > 30 µM (inactive) |  |  |  |  | Cc1[nH]c(/C=C2\C(=O)Nc3ccccc32)c(C)c1CCC(=O)O [ORANTINIB]
2.54 µM (active) | > 30 µM (inactive) | > 30 µM (inactive) | > 30 µM (inactive) | 2.21 µM | 4.32 µM (active) |  | Cc1nc(Nc2n[nH]c3c2CN(C(=O)N[C@H](CN(C)C)c2ccccc2)C3(C)C)c2sccc2n1 [PF-03758309]
 |  |  |  |  |  | > 30 µM (inactive) | O=C(NOCCO)c1cc(CN2OCCCC2=O)c(F)c(F)c1Nc1ccc(I)cc1F [RO-4987655]
0.013 µM | > 30 µM (inactive) | > 30 µM (inactive) | > 30 µM (inactive) | > 30 µM (inactive) | > 30 µM (inactive) |  | O=c1[nH]ccc2cc(OC3CCNCC3)ccc12 [SAR-407899 FREE BASE]
> 30 µM (inactive) | > 30 µM (inactive) | > 30 µM (inactive) | 3.34 µM (active) | > 30 µM (inactive) | > 30 µM (inactive) |  | C[C@@H](NC(=O)c1ncnc(N)c1Cl)c1ncc(C(=O)Nc2cc(C(F)(F)F)c(Cl)cn2)s1 [TOVORAFENIB]
> 30 µM (inactive) | > 30 µM (inactive) | > 30 µM (inactive) | > 30 µM (inactive) | > 30 µM (inactive) | > 30 µM (inactive) |  | Cn1ncc(Cl)c1-c1cc(C(=O)N[C@H](CN)Cc2ccc(F)c(F)c2)oc1Cl [UPROSERTIB]

SMILES | Kd [1] | Kd [2] | Kd [3] | Kd [4] | Kd [5] | Kd [6] | Kd [7]
CC(=O)c1cnc2ccc(-c3cc(Cl)c(O)c(Cl)c3)nc2c1N[C@H]1CC[C@H](CN(C)C)CC1 | 0.245 µM (active) | > 30 µM (inactive) | 0.149 µM (active) | 0.521 µM (active) | > 30 µM (inactive) | 0.067 µM (active) | 
COc1cc([C@@H]2c3cc4c(cc3[C@H](O)[C@H]3COC(=O)[C@@H]23)OCO4)cc(OC)c1OC [AXL-1717] | > 30 µM (inactive) |  | > 30 µM (inactive) | > 30 µM (inactive) | > 30 µM (inactive) | > 30 µM (inactive) | 
NC(=O)Nc1cc(-c2cccc(F)c2)sc1C(=O)N[C@H]1CCCNC1 [AZD-7762] | 0.181 µM (active) | > 30 µM (inactive) | > 30 µM (inactive) |  |  | 0.056 µM (active) | 
CC(C)(C)c1nc(-c2cccc(NS(=O)(=O)c3c(F)cccc3F)c2F)c(-c2ccnc(N)n2)s1 [DABRAFENIB] | > 30 µM (inactive) | > 30 µM (inactive) | > 30 µM (inactive) | 0.412 µM (active) |  | > 30 µM (inactive) | 
O=C(Nc1nc2cccc(-c3ccc(CN4CCS(=O)(=O)CC4)cc3)n2n1)C1CC1 [FILGOTINIB] | 6.59 µM (active) | > 30 µM (inactive) | > 30 µM (inactive) | > 30 µM (inactive) | > 30 µM (inactive) | > 30 µM (inactive) | 
CCOc1cc2ncc(C#N)c(Nc3ccc(F)c(Cl)c3)c2cc1NC(=O)/C=C/CN(C)C [PELITINIB] |  | > 30 µM (inactive) | > 30 µM (inactive) | > 30 µM (inactive) | > 30 µM (inactive) |  | 
CCCCCCCCCCCCCCCCCCOP(=O)([O-])OC1CC[N+](C)(C)CC1 [PERIFOSINE] | > 30 µM (inactive) | > 30 µM (inactive) | > 30 µM (inactive) | > 30 µM (inactive) | > 30 µM (inactive) | > 30 µM (inactive) | 
CNC(=O)c1cc(Oc2ccc(NC(=O)Nc3cc(C(C)(C)C)nn3-c3ccc4ncccc4c3)c(F)c2)ccn1 [REBASTINIB] | > 30 µM (inactive) | > 30 µM (inactive) | > 30 µM (inactive) | > 30 µM (inactive) |  |  | > 30 µM (inactive)
